Drawing on ChEMBL document CHEMBL1144828, “Isoxazolone based inhibitors of p38 MAP kinases” (J Med Chem, 2008), this text covers IC50 and inhibition for 31 compounds.

T1 sequence (Q16539 whole entry): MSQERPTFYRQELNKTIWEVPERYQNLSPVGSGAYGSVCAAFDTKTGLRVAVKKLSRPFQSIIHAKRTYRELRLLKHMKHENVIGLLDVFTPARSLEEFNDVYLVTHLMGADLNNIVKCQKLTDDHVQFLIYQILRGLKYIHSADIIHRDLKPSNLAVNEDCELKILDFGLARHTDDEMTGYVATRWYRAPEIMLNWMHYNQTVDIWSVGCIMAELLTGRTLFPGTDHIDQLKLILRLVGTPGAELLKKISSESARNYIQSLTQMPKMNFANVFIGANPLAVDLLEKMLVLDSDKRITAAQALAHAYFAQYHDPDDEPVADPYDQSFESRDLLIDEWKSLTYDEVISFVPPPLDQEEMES

One assay addresses T1, Mitogen-activated protein kinase 14 (Homo sapiens, UniProt Q16539). As to the kind of experiment: Inhibition of p38-alpha MAPK.
`Cc1ccc(S(=O)(=O)n2oc(=O)c(-c3ccc(F)cc3)c2-c2ccncc2)cc1` had an IC50 of 480 nM.

Regarding `CSCCn1oc(=O)c(-c2ccc(F)cc2)c1-c1ccncc1`, the 50% inhibitory concentration (IC50) was 3900 nM.

Compound `O=c1o[nH]c(-c2ccc(F)cc2)c1-c1ccncc1` yielded an IC50 of 1400 nM.

Compound `CCOC(=O)CCNC(=O)n1oc(=O)c(-c2ccc(F)cc2)c1-c1ccncc1` registered an IC50 of 970 nM.

For `COCCOCn1oc(=O)c(-c2ccc(F)cc2)c1-c1ccncc1`, 3830 nM corresponded to half-maximal inhibition (IC50).

Compound `O=c1on(C(=S)Nc2ccc(F)cc2)c(-c2ccncc2)c1-c1ccc(F)cc1` displayed an IC50 of 350 nM.

The compound `CCn1oc(=O)c(-c2ccc(F)cc2)c1-c1ccncc1` returned an IC50 of 1630 nM.

The compound `O=c1on(CC2CO2)c(-c2ccncc2)c1-c1ccc(F)cc1` (stereo unspecified) came in with an IC50 of 3830 nM.

Take `CCNC(=O)n1oc(=O)c(-c2ccc(F)cc2)c1-c1ccncc1`: half-maximal inhibition (IC50) required 230 nM.

Compound `O=c1on(CCO)c(-c2ccncc2)c1-c1ccc(F)cc1` gave an IC50 of 2500 nM.

For `CCOCCn1oc(=O)c(-c2ccc(F)cc2)c1-c1ccncc1`, the midpoint of inhibition, the IC50, lay at 1320 nM.

Consider `CSc1nc(-c2ccc(F)cc2)c(-c2ccncc2)n1CCCO`, for which the IC50 is 813 nM.

Compound `O=c1on(CCCO)c(-c2ccncc2)c1-c1ccc(F)cc1` returned an IC50 of 1150 nM.

`COCn1oc(=O)c(-c2ccc(F)cc2)c1-c1ccncc1` had an IC50 of 2130 nM.

In turn, `Oc1onc(-c2ccncc2)c1-c1ccc(F)cc1` gave an IC50 of 390 nM.

The compound `O=C(Nc1ccc(F)cc1)n1oc(=O)c(-c2ccc(F)cc2)c1-c1ccncc1` came in with an IC50 of 320 nM.

`O=c1on(CC2CC2)c(-c2ccncc2)c1-c1ccc(F)cc1` yielded an IC50 of 2130 nM.

With `CC(=O)n1oc(=O)c(-c2ccc(F)cc2)c1-c1ccncc1`, half-maximal inhibition (IC50) required 120 nM.

In a further assay the target is T1, Mitogen-activated protein kinase 14. Put plainly: Inhibition of p38-alpha MAPK at 10 uM.
Compound `COc1onc(-c2ccc(F)cc2)c1-c1ccncc1` came in with an inhibition of 26.5%.

The compound `OCCCOc1onc(-c2ccc(F)cc2)c1-c1ccncc1` returned an inhibition of 9.8%.

Compound `CC(c1ccccc1)n1oc(=O)c(-c2ccc(F)cc2)c1-c1ccncc1` (stereo unspecified) came in with an inhibition of 27.5%.

Turning to `Fc1ccc(-c2noc(OCC3CC3)c2-c2ccncc2)cc1`, the inhibition stood at 26.4%.

Take `OCCOc1onc(-c2ccc(F)cc2)c1-c1ccncc1`: the inhibition was determined as 14.7%.

`CC(C)Oc1onc(-c2ccc(F)cc2)c1-c1ccncc1` yielded an inhibition of 11.9%.

Turning to `CCOc1onc(-c2ccc(F)cc2)c1-c1ccncc1`, the inhibition was 13.6%.

As to `COCOc1onc(-c2ccc(F)cc2)c1-c1ccncc1`, the inhibition came out at 27.8%.

`CC(C)n1oc(=O)c(-c2ccc(F)cc2)c1-c1ccncc1`: the inhibition stood at 42.2%.

`Fc1ccc(-c2noc(OCC3CO3)c2-c2ccncc2)cc1` (stereo unspecified) registered an inhibition of 23.7%.

In turn, `COCCOc1onc(-c2ccc(F)cc2)c1-c1ccncc1` displayed an inhibition of 14.4%.

Regarding `O=C1c2ccccc2C(=O)N1CCn1oc(=O)c(-c2ccc(F)cc2)c1-c1ccncc1`, the inhibition was found to be 41.9%.

Compound `O=c1on(CCN2CCCCC2)c(-c2ccncc2)c1-c1ccc(F)cc1` showed an inhibition of 38.3%.
